Read-outs that look alike come from different tables or passages of the source.
What was measured:
non-expressing oocytes = test: cells; type: cell-based, Xenopus laevis; details: Xenopus laevis, total [3H]CQ transport; for inhibition at 500 µM: [test solute] = 0.5 mM; for inhibition at 1000 µM: [test solute] = 1 mM; for inhibition at 2000 µM: [test solute] = 2 mM
How it was run: (§1)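 PfCRT-expressing and control oocytes: ND96 pH 5.5 → 1.5 h at 27.5 °C → ice-cold ND96 wash → 10% SDS lysis → scintillation count.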

PfCRT^3D7 = PfCRT^3D7 (Plasmodium falciparum, UniProt Q8IBZ9); test: cell-based; type: cell-based; details: total [3H]CQ transport; for inhibition at 500 µM: [test solute] = 0.5 mM; for inhibition at 1000 µM: [test solute] = 1 mM; for inhibition at 2000 µM: [test solute] = 2 mM
PfCRT^3D7, sequence (Q8IBZ9 59-398): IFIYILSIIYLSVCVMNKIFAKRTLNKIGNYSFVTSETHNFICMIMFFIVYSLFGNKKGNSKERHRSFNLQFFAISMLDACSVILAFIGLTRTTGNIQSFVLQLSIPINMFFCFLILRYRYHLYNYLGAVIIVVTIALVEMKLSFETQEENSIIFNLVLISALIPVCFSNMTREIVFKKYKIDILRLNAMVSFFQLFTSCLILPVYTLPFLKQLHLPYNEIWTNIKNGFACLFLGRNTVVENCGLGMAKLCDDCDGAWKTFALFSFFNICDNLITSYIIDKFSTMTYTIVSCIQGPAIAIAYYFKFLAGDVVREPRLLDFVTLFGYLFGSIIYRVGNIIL
How it was run: as §1

PfCRT^Dd2 = PfCRT^Dd2 (Plasmodium falciparum, UniProt Q9N623, A220S/I356T/K76T/M74I/N326S/N75E/Q271E/R371I); test: [3H]CQ uptake into Xenopus oocytes, cis-inhibition by unlabelled solute; type: cell-based
PfCRT^Dd2, sequence (Q9N623 whole entry A220S/I356T/K76T/M74I/N326S/N75E/Q271E/R371I): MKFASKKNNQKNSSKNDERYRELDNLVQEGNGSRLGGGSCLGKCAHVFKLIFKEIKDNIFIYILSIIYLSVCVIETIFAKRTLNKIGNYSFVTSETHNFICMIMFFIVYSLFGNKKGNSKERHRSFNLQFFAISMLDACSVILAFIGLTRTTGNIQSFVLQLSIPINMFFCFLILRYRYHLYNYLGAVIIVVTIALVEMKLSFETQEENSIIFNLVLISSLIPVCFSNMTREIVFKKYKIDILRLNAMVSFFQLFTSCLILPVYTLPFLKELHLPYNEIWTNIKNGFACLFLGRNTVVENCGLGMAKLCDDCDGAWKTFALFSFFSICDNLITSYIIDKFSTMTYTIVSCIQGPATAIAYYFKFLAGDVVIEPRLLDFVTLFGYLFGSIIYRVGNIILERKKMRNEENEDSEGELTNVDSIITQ
How it was run: as §1

PfCRT^Ecu1110 = PfCRT^Ecu1110 (Plasmodium falciparum, UniProt Q9N623, A220S/I356L/K76T/N326D); test: as above; type: cell-based
PfCRT^Ecu1110, sequence (Q9N623 whole entry A220S/I356L/K76T/N326D): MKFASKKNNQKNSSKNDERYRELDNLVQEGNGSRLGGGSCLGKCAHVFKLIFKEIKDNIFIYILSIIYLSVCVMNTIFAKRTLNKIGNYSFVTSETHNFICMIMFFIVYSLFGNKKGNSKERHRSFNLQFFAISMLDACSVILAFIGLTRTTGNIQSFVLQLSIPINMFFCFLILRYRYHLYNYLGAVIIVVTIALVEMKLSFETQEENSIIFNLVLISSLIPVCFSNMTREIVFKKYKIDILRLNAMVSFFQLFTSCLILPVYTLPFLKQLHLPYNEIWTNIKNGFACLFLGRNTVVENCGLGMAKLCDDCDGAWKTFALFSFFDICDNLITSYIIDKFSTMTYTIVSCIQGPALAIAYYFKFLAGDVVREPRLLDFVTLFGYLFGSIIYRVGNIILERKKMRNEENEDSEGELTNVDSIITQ
How it was run: as §1

[1] = Oocyte, mean ± SEM, SEM, read-out: Uptake of [3H]CQ (% PfCRTDd2 control), cis-inhibition, non-expressing oocytes
[2] = non-expressing oocytes, normalised to the oocyte type control, read-out: Uptake of [3H]CQ (% non-expressing oocyte control), cis-inhibition
[3] = PfCRT3D7 oocytes, normalised to the oocyte type control, read-out: Uptake of [3H]CQ (% PfCRT3D7 control), cis-inhibition
[4] = mean ± SEM, SEM, read-out: Uptake of [3H]CQ (% PfCRTDd2 control), cis-inhibition, PfCRT3D7
[5] = read-out: PfCRT-mediated [3H]CQ transport, cis-inhibition (% PfCRTDd2 control)
[6] = read-out: Uptake of [3H]CQ (% PfCRTDd2 control), cis-inhibition
[7] = read-out: Uptake of [3H]CQ (% PfCRTDd2 control), cis-inhibition, PfCRTDd2, SEM
[8] = read-out: [3H]CQ transport (% PfCRTDd2 control), cis-inhibition, PfCRTDd2, SEM
[9] = read-out: PfCRT-mediated [3H]CQ transport, cis-inhibition (% PfCRTEcu1110 control)
[10] = read-out: Uptake of [3H]CQ (% PfCRTDd2 control), cis-inhibition, PfCRTEcu1110, SEM
[11] = read-out: Uptake of [3H]CQ (% PfCRTEcu1110 control), cis-inhibition

SMILES: N[C@@H](Cc1c[nH]c2ccccc12)C(=O)O [L-tryptophan]
- inhibition at 500 µM (non-expressing oocytes; [1]): 2.1 ± 0.07%
- inhibition at 1000 µM (non-expressing oocytes; [1]): 3.4 ± 0.1%
- inhibition at 2000 µM (non-expressing oocytes; [1]): 3.6 ± 0.09%
- inhibition at 500 µM (non-expressing oocytes; [2]): 97 ± 3.2%
- inhibition at 1000 µM (non-expressing oocytes; [2]): 100 ± 3.6%
- inhibition at 2000 µM (non-expressing oocytes; [2]): 100 ± 6.3%
- inhibition at 500 µM (PfCRT^3D7; [3]): 100 ± 3.2%
- inhibition at 1000 µM (PfCRT^3D7; [3]): 99 ± 4.6%
- inhibition at 2000 µM (PfCRT^3D7; [3]): 100 ± 3.6%
- inhibition at 500 µM (PfCRT^3D7; [4]): 2.7 ± 0.03%
- inhibition at 1000 µM (PfCRT^3D7; [4]): 2.5 ± 0.04%
- inhibition at 2000 µM (PfCRT^3D7; [4]): 2.7 ± 0.04%
- inhibition at 500 µM (PfCRT^Dd2; [5]): 94 ± 4.6%
- inhibition at 1000 µM (PfCRT^Dd2; [5]): 95 ± 1.9%
- inhibition at 2000 µM (PfCRT^Dd2; [5]): 95 ± 1.9%
- inhibition at 1000 µM (PfCRT^Dd2; [6]): 97 ± 2.6%
- inhibition at 2000 µM (PfCRT^Dd2; [6]): 97 ± 2.5%
- inhibition at 500 µM (PfCRT^Dd2; [7]): 96 ± 2.1%
- inhibition at 1000 µM (PfCRT^Dd2; [7]): 97 ± 2.6%
- inhibition at 2000 µM (PfCRT^Dd2; [7]): 97 ± 2.5%
- inhibition at 1000 µM (PfCRT^Dd2; [8]): 95 ± 1.9%
- inhibition at 2000 µM (PfCRT^Dd2; [8]): 95 ± 1.9%
- inhibition at 500 µM (PfCRT^Ecu1110; [9]): 96 ± 3.7%
- inhibition at 1000 µM (PfCRT^Ecu1110; [9]): 95 ± 4.6%
- inhibition at 500 µM (PfCRT^Ecu1110; [10]): 32 ± 1.6%
- inhibition at 1000 µM (PfCRT^Ecu1110; [10]): 32 ± 0.6%
- inhibition at 2000 µM (PfCRT^Ecu1110; [10]): 33 ± 1.4%
- inhibition at 500 µM (PfCRT^Ecu1110; [11]): 98 ± 2.5%
- inhibition at 1000 µM (PfCRT^Ecu1110; [11]): 97 ± 2.7%
- inhibition at 2000 µM (PfCRT^Ecu1110; [11]): 101 ± 3.1%

From publication PMC7413254 (Nature Communications, 2020)
